This passage reports TGI results from PubChem BioAssay (NCI).

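Interpolation was linear, between the two tested concentrations surrounding the appropriate level; five concentrations were tested over 48 hours in 96-well plates. TGI denotes the concentration required for complete inhibition of growth.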 A value given as a limit tells only on which side of the number the result lay.

Some test systems named below: TK-10 renal; KM12 colon; CCRF-CEM leukemia; HCT-15 colon; SF-295 CNS; A498 renal; SK-OV-3 ovarian; SF-268 CNS; 786-0 renal; BT-549 breast; MDA-MB-231 breast; CAKI-1 renal; SK-MEL-28 melanoma; A549 NSCLC; PC-3 prostate; HL-60(TB) leukemia; SF-539 CNS; NCI-H226 lung; NCI/ADR-RES ovarian; SK-MEL-2 melanoma.
Holding throughout (test): NCI anticancer screen, dose series, 48 h

As for `COC(=O)C[C@@H]1C(C)(C)[C@@H]2O[C@@]34C[C@@H]2C(=O)[C@]1(C)[C@H]3CC[C@@]1(C)[C@H](c2ccoc2)OC(=O)C[C@]14O`, the TGI with TK-10 renal, with KM12 colon, in the assay on CCRF-CEM leukemia, with HCT-15 colon, in the assay on SF-295 CNS and in the assay with A498 renal was over 100 µM each time. Moreover, the TGI in the assay on SK-OV-3 ovarian, in the assay on SF-268 CNS, in the assay on 786-0 renal, in the assay on BT-549 breast, in the assay with MDA-MB-231 breast and in the assay on CAKI-1 renal was over 100 µM throughout. Besides, the TGI in the assay on SK-MEL-28 melanoma, in the assay with A549 NSCLC, in the assay on PC-3 prostate, with HL-60(TB) leukemia, in the assay with SF-539 CNS and with NCI-H226 lung was over 100 µM throughout. In addition, the TGI in the assay on NCI/ADR-RES ovarian and with SK-MEL-2 melanoma was over 100 µM in each case.

For `CN1C2CCC1C(C(O)c1ccccc1[N+](=O)[O-])C(=O)C2` (stereo not given), the TGI with TK-10 renal, with KM12 colon, with CCRF-CEM leukemia, in the assay on HCT-15 colon, in the assay with SF-295 CNS and in the assay on A498 renal was over 100 µM throughout. Moreover, the TGI in the assay with SK-OV-3 ovarian, with SF-268 CNS, with 786-0 renal, in the assay on BT-549 breast, in the assay with MDA-MB-231 breast and in the assay with CAKI-1 renal was over 100 µM each time. In addition, the TGI in the assay with SK-MEL-28 melanoma is over 100 µM; in the assay on A549 NSCLC it was over 100 µM; in the assay with PC-3 prostate it was over 100 µM; in the assay with HL-60(TB) leukemia it was over 100 µM; in the assay with SF-539 CNS, 80.4 µM; with NCI-H226 lung, 73.3 µM. Besides, the TGI in the assay with NCI/ADR-RES ovarian was 91.9 µM; in the assay on SK-MEL-2 melanoma, over 100 µM.

In the case of `CC(=O)OCCCCn1cnc2nc(Nc3ccccc3)nc(Cl)c21`, the TGI in the assay with TK-10 renal, in the assay on KM12 colon, with CCRF-CEM leukemia, in the assay on HCT-15 colon, in the assay on SF-295 CNS and in the assay on A498 renal was over 100 µM in each case. In addition, the TGI with SK-OV-3 ovarian is over 100 µM; in the assay on SF-268 CNS, over 100 µM; in the assay with 786-0 renal, over 100 µM; in the assay on BT-549 breast, over 100 µM; in the assay on MDA-MB-231 breast, over 100 µM; with CAKI-1 renal, 81.4 µM. The TGI in the assay with SK-MEL-28 melanoma, in the assay with A549 NSCLC, in the assay on PC-3 prostate, in the assay with HL-60(TB) leukemia, in the assay with SF-539 CNS and in the assay with NCI-H226 lung was over 100 µM each time. In addition, the TGI with NCI/ADR-RES ovarian and with SK-MEL-2 melanoma was over 100 µM in each case.

On to `CCCCOC(=O)C1CN2C=CC=NC2=NC1(C(F)(F)F)C(F)(F)F` (stereo not given), for which the TGI with TK-10 renal, in the assay on KM12 colon, in the assay on CCRF-CEM leukemia, with HCT-15 colon, with SF-295 CNS and in the assay with A498 renal was over 100 µM in each case. Moreover, the TGI in the assay with SK-OV-3 ovarian, with SF-268 CNS, in the assay on 786-0 renal, in the assay with BT-549 breast, in the assay on MDA-MB-231 breast and in the assay with CAKI-1 renal was over 100 µM each time. Also, the TGI with SK-MEL-28 melanoma, with A549 NSCLC, in the assay on PC-3 prostate, in the assay on HL-60(TB) leukemia, in the assay with SF-539 CNS and with NCI-H226 lung was over 100 µM throughout. Further, the TGI in the assay on NCI/ADR-RES ovarian and with SK-MEL-2 melanoma was over 100 µM throughout.

`Cc1ccc2c(c1)C(=O)C(Cc1ccccc1C(=O)O)C2` (stereo not given): the TGI in the assay on TK-10 renal, in the assay on KM12 colon, in the assay on CCRF-CEM leukemia, with HCT-15 colon, with SF-295 CNS and in the assay on A498 renal was over 100 µM throughout. Further, the TGI in the assay on SK-OV-3 ovarian, in the assay on SF-268 CNS, in the assay on 786-0 renal, in the assay with BT-549 breast, with MDA-MB-231 breast and with CAKI-1 renal was over 100 µM in each case. Also, the TGI with SK-MEL-28 melanoma, in the assay with A549 NSCLC, with PC-3 prostate, in the assay with HL-60(TB) leukemia, with SF-539 CNS and with NCI-H226 lung was over 100 µM throughout. Also, the TGI in the assay on NCI/ADR-RES ovarian and with SK-MEL-2 melanoma was over 100 µM each time.

Regarding `COC(=O)C1=NN2c3ccccc3C(=O)OCCC2(C)C1` (stereo not given), the TGI with TK-10 renal, in the assay on KM12 colon, with CCRF-CEM leukemia, in the assay on HCT-15 colon, with SF-295 CNS and with A498 renal was over 100 µM throughout. Moreover, the TGI with SK-OV-3 ovarian, in the assay on SF-268 CNS, with 786-0 renal, in the assay with BT-549 breast, in the assay on MDA-MB-231 breast and in the assay with CAKI-1 renal was over 100 µM in each case. Also, the TGI in the assay with SK-MEL-28 melanoma, in the assay with A549 NSCLC, in the assay with PC-3 prostate, in the assay on HL-60(TB) leukemia, with SF-539 CNS and in the assay with NCI-H226 lung was over 100 µM in each case. Moreover, the TGI with NCI/ADR-RES ovarian and in the assay on SK-MEL-2 melanoma was over 100 µM in each case.

For the compound `Cc1cccc(N=Nc2c(C)nn(C(=O)CC(=O)Nc3ccccc3)c2C)c1`, the TGI with TK-10 renal, in the assay with KM12 colon, in the assay on CCRF-CEM leukemia, in the assay with HCT-15 colon, in the assay on SF-295 CNS and in the assay on A498 renal was over 100 µM in each case. Also, the TGI in the assay with SK-OV-3 ovarian, with SF-268 CNS, with 786-0 renal, with BT-549 breast, in the assay on MDA-MB-231 breast and in the assay on CAKI-1 renal was over 100 µM in each case. In addition, the TGI with SK-MEL-28 melanoma, in the assay on A549 NSCLC, in the assay with PC-3 prostate, in the assay with HL-60(TB) leukemia, in the assay on SF-539 CNS and in the assay on NCI-H226 lung was over 100 µM throughout. Further, the TGI with NCI/ADR-RES ovarian and in the assay with SK-MEL-2 melanoma was over 100 µM throughout.
